The record followed here is PubChem BioAssay AID1259321 (Sanford-Burnham Center for Chemical Genomics, 2017).

Molecules are shown by their SMILES. Activity calls are given as the source filed them.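 Rule for the calls: active = half-maximal concentration for changing protein binding to DNA, from the fitted dose curve, below 10 micromolar; inactive = the rest.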

For the test, the target named is Nuclear receptor subfamily 1 group D member 1 (Homo sapiens) (UniProt P20393). The test is described as follows: Rev-erbα–DNA interaction modulators – biochemical, FITC-DNA, fluorescence polarization, dose response (AID 1259321). The settings on record: Rev-erb alpha-FITC-DNA binding. (In general: In fluorescence polarisation assays a small probe gives low polarisation when free and higher when bound to something large.)
Sequence of Nuclear receptor subfamily 1 group D member 1 (Homo sapiens) (P20393 whole entry, looked up): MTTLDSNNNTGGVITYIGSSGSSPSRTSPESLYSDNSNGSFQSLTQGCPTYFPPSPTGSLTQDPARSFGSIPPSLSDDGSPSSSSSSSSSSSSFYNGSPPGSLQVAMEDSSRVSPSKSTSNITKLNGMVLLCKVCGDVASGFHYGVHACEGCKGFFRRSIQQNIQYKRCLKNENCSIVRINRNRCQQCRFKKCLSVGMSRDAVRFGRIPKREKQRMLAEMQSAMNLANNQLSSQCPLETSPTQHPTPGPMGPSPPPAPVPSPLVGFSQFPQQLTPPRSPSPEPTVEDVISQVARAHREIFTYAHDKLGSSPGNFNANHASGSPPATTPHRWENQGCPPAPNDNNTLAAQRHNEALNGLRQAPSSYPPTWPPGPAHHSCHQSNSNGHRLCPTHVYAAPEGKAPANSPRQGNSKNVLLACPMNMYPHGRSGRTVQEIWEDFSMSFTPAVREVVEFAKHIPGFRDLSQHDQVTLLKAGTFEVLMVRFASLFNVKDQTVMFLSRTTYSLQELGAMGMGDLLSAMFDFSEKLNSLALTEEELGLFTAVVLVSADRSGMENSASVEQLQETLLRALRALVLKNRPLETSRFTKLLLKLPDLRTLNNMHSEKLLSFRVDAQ
For the compound `O=c1ccc2c(-c3ccccc3)c3ccc(O)cc3oc-2c1`, the IC50 (as a rule, the concentration that gives 50% inhibition) is “inactive”.

For `c1ccc(N(c2ccccc2)c2nc(N3CCCC3)nc(-n3ccnc3)n2)cc1`, the IC50 is 1.14 µM.

As for `CC(=O)Nc1ccc(Nc2c3c4c(cccc4n(C)c2=O)C(=O)c2ccccc2-3)cc1`, the IC50 was 5.25 µM.

As for `Cc1cc(NC(=O)c2cccs2)cc(-c2nc3ncccc3o2)c1O`, the IC50 entry is “inactive”.

In the case of `Cn1nnnc1-c1cc(Br)ccc1NC(=O)c1ccccc1`, the IC50 result was “inactive”.

Consider `O=C(CSc1ncnc2c1oc1ccccc12)NCc1ccc(F)cc1`, for which the IC50 is 1.26 µM.

Take `Cc1nc(SCC(=O)NCCc2ccccc2)c2oc3ccccc3c2n1`: the IC50 is 4.25 µM.

On to `O=C(c1cc2cc(Br)ccc2[nH]1)N1CCc2ccccc21`, for which the half-inhibitory concentration (IC50) is 9.54 µM.

Consider `COc1ccccc1N=Nc1nc(-c2ccccc2)c(-c2ccccc2)[nH]1`, for which the IC50 was 0.465 µM.

As to `Cc1sc2nc(Cc3ccccc3)[nH]c(=O)c2c1-c1ccccc1`, the IC50 was > 40 µM (inactive).

In the case of `CCOC(=O)COc1c(Cl)cc(C2NC(=S)NC(c3ccccc3)=C2C(C)=O)cc1OCC` (configuration not stated), the IC50 is 1.16 µM.

Regarding `Cc1cccc(C)c1NC(=O)COc1ccccc1C(=O)Nc1ccc(Br)cn1`, the IC50 is 4.34 µM.

Turning to `COc1ccccc1Oc1ccc2c(c1)C(=O)N(c1ccccc1)C2=O`, the IC50 was 2.24 µM.

Take `Cc1ccccc1OCC(=O)Nc1ccc2c(c1)C(=O)c1ccccc1C2=O`: the IC50 is > 40 µM (inactive).

On to `COC(=O)c1ccc(Cn2ccc3ccc(-c4ccc5ccn(C(=O)c6ccccc6OC)c5c4)cc32)cc1`, for which the IC50 was 5.24 µM.

Consider `CC(=O)c1cc2c(cc1N/C(=N/S(=O)(=O)c1ccc(C)cc1)c1ccc(Cl)cc1)OCO2`, for which the IC50 is > 40 µM (inactive).

Turning to `COc1cccc(Nc2nc(-c3ccccc3O)nc3ccccc23)c1`, the half-maximal inhibitory concentration (IC50) is 9.08 µM.

As for `Cc1cccc2cc(C#N)c(SCC(=O)N3CC(=O)Nc4ccccc43)nc12`, the IC50 entry was “inactive”.

With `O=C1c2cccc3c(O)ccc(c23)C(=O)N1Cc1ccco1`, the IC50 result is “inactive”.

As to `CCOc1cc(N(CC)CC)ccc1/C=C(/C#N)c1nc2ccccc2[nH]1`, the IC50 entry was “inactive”.

For `COc1ccc(CN(Cc2cc3cc(OC)c(OC)cc3[nH]c2=O)C(=O)NC2CCCCC2)cc1`, the concentration for half-maximal inhibition (IC50) is 3.44 µM.

As to `COc1ccc(Cl)cc1C(=O)Nc1cccc(-c2ccc3nncn3n2)c1`, the half-inhibitory concentration (IC50) is 7.26 µM.

Regarding `Cc1nc(SCC(=O)NCc2ccccc2)c2oc3ccccc3c2n1`, the half-maximal inhibitory concentration (IC50) is 4.18 µM.

Take `COc1ccc(C(=O)c2ccc(OC)c(Br)c2)cc1Br`: the IC50 is > 40 µM (inactive).

Consider `Cc1cc(C)c2c(N)c(C(=O)N/N=C/c3cccs3)sc2n1`, for which the IC50 is 5.4 µM.

As for `CCc1nc(SCC(=O)NC2CCCC2)c2oc3ccccc3c2n1`, the IC50 was > 40 µM (inactive).

With `O=C(CCCOc1ccc(Cl)cc1Cl)NNC(=O)c1ccc(NC(=O)c2ccccc2)cc1`, the IC50 was 5.81 µM.

Consider `COc1ccc(C(=O)Nc2ccc(C(F)(F)F)n(C)c2=O)cc1`, for which the IC50 is > 40 µM (inactive).

Regarding `O=C(CCS(=O)(=O)c1ccccc1)Nc1ccccc1-c1nc2ccccc2s1`, the IC50 was 0.518 µM.

`O=C(CSc1nnc(-c2cccs2)o1)c1ccc2c(c1)OCO2`: the IC50 entry is “inactive”.

For the compound `CC1(Cc2ccccc2OC(F)(F)F)C(=O)Nc2ccc(OC(F)(F)F)cc21` (configuration not stated), the IC50 is 4.19 µM.

Take `COc1cc(SC)ccc1C(=O)Nc1ccc(Cl)cn1`: the half-maximal inhibitory concentration (IC50) is 4.58 µM.

Take `Cc1ccc2c(n1)sc1c(-c3ccccc3)c(C#N)c(N)nc12`: the IC50 result is “inactive”.

Regarding `Cc1ccc(-n2c(SCC(=O)NCc3ccco3)nc3sc4c(c3c2=O)CC(C)(C)SC4)cc1`, the half-maximal inhibitory concentration (IC50) was 1.93 µM.

On to `CCOc1ccc(/C(CC)=N/NC(=O)C2(C)CC2(Br)Br)cc1` (configuration not stated), for which the IC50 is 7.81 µM.

In the case of `CC(=O)Oc1ccc2oc(/C=C/N(C)C)c([N+](=O)[O-])c2c1`, the IC50 is 3.91 µM.

In the case of `COc1cccc(C(=O)n2ccc3ccc(-c4ccc5ccn(Cc6ccccc6)c5c4)cc32)c1`, the IC50 is 1.31 µM.
